By AC50 is commonly meant the midpoint of the concentration-response curve, whichever way the signal moves. High values mean activity only at high concentration, low ones activity at low concentration.

This passage reports AC50 results from ChEMBL document CHEMBL5291721, “A preclinical secondary pharmacology resource illuminates target-adverse drug reaction associations of marketed drugs” (Nat Commun, 2023).

Experiment [1] has as its target cGMP-inhibited 3',5'-cyclic phosphodiesterase 3A (Homo sapiens, UniProt Q14432). The experiment is classed as functional.
The target in experiment [2] is T1, Alpha-2A adrenergic receptor (Homo sapiens, UniProt P08913).
T1 sequence (P08913 whole entry): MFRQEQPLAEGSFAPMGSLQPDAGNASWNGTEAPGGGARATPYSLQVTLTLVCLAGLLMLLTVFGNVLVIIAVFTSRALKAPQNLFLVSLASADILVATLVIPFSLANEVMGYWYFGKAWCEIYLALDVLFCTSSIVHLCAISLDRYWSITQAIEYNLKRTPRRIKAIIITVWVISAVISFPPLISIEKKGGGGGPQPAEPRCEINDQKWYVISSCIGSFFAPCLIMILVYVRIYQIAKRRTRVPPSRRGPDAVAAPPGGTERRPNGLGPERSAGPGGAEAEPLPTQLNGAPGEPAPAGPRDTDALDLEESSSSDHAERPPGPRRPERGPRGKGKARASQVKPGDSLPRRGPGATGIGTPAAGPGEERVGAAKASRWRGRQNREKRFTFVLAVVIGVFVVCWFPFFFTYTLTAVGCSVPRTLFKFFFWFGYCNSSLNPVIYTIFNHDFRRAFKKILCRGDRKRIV
The experiment is classed as functional, cell-based.

Experiment [3] concerns the target T2, Alpha-2C adrenergic receptor (Homo sapiens, UniProt P18825).
T2 sequence (P18825 whole entry): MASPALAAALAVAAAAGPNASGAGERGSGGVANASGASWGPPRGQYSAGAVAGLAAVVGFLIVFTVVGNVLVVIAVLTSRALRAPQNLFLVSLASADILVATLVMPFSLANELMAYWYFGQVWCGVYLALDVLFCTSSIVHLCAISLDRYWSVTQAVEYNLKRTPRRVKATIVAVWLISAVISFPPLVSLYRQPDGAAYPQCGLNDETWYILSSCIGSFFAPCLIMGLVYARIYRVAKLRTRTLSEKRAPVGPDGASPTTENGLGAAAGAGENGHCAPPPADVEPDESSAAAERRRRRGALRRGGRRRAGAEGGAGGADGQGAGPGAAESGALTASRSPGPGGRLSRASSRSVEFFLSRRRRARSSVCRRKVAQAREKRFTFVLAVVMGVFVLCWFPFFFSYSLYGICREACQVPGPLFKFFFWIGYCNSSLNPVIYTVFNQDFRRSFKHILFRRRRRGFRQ
The experiment is classed as functional.

Experiment [4] deals with D(1A) dopamine receptor (Homo sapiens, UniProt P21728). The format is functional, cell-based.
Sequence of D(1A) dopamine receptor (P21728 whole entry): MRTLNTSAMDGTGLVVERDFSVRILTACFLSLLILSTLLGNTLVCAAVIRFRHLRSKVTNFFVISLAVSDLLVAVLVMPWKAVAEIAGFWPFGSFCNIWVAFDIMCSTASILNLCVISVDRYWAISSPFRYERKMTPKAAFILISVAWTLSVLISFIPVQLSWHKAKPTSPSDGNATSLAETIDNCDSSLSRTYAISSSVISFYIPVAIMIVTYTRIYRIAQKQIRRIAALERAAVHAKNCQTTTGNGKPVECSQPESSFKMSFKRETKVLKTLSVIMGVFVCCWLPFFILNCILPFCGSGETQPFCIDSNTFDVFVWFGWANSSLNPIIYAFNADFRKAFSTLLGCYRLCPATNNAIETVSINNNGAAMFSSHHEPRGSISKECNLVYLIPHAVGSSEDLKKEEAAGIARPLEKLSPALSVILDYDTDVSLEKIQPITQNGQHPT
The target in experiment [5] is T3, 5-hydroxytryptamine receptor 2B (Homo sapiens, UniProt P41595). The experiment is classed as functional, cell-based.
T3 sequence (P41595 whole entry): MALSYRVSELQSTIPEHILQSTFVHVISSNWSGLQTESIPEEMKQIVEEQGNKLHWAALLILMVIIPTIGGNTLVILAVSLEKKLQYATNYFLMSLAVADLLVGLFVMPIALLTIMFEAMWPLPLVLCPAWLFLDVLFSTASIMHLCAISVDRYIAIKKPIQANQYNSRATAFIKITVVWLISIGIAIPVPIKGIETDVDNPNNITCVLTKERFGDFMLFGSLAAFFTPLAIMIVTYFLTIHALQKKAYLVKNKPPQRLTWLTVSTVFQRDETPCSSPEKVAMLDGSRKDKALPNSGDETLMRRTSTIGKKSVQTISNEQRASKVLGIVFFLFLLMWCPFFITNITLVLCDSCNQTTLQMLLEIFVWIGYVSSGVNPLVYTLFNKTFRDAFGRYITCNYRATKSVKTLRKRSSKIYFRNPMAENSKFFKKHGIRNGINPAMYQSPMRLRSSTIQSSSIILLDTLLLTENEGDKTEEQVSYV
Experiment [6] has as its target T3, 5-hydroxytryptamine receptor 2B. The experiment is classed as functional, cell-based. The source holds these as a separate data set.
In experiment [7] the target is T4, 5-hydroxytryptamine receptor 3A (Homo sapiens, UniProt P46098).
T4 sequence (P46098 whole entry): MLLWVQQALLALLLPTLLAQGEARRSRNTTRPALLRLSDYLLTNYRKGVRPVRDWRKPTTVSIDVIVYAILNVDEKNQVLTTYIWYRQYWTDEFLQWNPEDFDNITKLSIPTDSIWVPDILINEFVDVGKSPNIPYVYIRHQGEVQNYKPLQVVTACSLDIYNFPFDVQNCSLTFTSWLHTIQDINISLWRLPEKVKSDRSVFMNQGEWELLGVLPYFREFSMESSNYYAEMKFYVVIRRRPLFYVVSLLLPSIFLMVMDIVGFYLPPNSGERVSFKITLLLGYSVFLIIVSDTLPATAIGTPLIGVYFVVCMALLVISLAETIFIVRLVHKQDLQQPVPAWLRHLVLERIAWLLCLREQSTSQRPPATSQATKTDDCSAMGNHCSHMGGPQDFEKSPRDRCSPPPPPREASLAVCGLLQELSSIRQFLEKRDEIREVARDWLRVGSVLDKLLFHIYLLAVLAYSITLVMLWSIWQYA
The format is functional.

The target of experiment [8] is T5, Amine oxidase [flavin-containing] A (Homo sapiens, UniProt P21397).
T5 sequence (P21397 whole entry): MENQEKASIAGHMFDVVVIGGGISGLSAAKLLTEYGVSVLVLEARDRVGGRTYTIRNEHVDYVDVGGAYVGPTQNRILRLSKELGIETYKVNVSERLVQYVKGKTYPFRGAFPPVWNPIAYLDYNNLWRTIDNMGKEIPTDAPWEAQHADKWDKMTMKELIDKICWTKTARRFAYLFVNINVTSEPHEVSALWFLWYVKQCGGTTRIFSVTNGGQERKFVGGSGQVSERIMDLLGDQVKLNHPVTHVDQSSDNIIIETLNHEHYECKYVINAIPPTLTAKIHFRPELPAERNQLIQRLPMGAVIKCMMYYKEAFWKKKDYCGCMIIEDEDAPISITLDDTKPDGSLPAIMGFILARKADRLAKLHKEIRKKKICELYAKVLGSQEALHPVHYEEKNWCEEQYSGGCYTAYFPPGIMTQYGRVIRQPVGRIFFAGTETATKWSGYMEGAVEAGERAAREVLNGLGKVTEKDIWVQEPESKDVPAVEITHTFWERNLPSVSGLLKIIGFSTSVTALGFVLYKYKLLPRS
The experiment is classed as functional.

SMILES strings stand for the structures.
Note: assay procedure not described here.

Sequence of cGMP-inhibited 3',5'-cyclic phosphodiesterase 3A (Q14432 whole entry): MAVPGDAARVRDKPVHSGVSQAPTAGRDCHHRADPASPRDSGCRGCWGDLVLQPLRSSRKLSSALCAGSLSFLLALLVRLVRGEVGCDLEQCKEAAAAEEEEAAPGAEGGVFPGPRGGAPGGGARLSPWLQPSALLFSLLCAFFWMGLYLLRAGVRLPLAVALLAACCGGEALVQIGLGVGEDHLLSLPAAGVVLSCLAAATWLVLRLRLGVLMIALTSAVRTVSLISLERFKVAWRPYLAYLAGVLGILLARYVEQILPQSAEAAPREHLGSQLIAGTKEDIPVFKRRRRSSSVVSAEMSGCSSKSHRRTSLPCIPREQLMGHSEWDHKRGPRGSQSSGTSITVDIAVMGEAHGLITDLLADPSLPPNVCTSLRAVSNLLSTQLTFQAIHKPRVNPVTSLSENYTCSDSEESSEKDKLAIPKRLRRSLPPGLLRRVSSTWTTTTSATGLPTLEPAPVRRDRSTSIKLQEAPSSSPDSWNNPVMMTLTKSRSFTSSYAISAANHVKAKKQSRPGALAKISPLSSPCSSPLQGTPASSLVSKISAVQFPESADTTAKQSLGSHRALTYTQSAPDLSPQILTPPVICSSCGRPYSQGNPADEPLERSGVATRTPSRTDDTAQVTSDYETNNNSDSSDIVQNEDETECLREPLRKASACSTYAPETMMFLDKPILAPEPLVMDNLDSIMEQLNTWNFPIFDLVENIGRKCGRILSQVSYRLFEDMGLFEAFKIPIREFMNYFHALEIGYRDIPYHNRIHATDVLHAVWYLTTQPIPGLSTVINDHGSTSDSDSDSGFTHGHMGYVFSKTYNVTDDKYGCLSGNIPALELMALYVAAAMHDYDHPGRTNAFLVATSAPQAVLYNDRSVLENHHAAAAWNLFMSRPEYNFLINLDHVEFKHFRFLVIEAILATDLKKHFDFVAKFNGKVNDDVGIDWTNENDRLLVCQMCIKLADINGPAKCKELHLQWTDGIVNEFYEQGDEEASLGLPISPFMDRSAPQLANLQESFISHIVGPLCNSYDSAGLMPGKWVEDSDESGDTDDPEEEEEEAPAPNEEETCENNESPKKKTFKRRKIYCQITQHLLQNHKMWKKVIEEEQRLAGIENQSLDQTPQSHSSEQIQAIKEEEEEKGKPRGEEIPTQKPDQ

Turning to `CC(=O)OC[C@H]1O[C@@H](n2ccc(=O)[nH]c2=O)[C@H](OC(C)=O)[C@@H]1OC(C)=O` [URIDINE TRIACETATE], the AC50 in experiment [1] was above 30 µM.

As for `NC1=NC(=O)C(c2ccccc2)O1` (configuration not stated) [PEMOLINE], the concentration at half-maximal activity (AC50) in experiment [2] is above 10 µM; in experiment [3], above 10 µM; in experiment [4], above 10 µM; in experiment [5] it was above 10 µM; in experiment [6], above 10 µM; in experiment [7] it was above 30 µM. In experiment [8], this molecule registered an AC50 above 10 µM.

With `COC(=O)N[C@H](C(=O)N[C@@H](Cc1ccccc1)[C@@H](O)CN(Cc1ccc(-c2ccccn2)cc1)NC(=O)[C@@H](NC(=O)OC)C(C)(C)C)C(C)(C)C` [ATAZANAVIR], the AC50 in experiment [2] is above 10 µM; in experiment [3], above 10 µM; in experiment [4], above 10 µM; in experiment [5] it was above 10 µM; in experiment [6], above 10 µM; in experiment [7], above 30 µM. Also, the AC50 in experiment [8] is above 10 µM.

`CN1C(=O)CC(C)(c2ccccc2)C1=O` (configuration not stated) [METHSUXIMIDE]: the AC50 was above 10 µM in experiment [2]; above 10 µM in experiment [3]; above 30 µM in experiment [4]; above 10 µM in experiment [5]; above 10 µM in experiment [6]; above 30 µM in experiment [7]. This molecule also yielded an AC50 in experiment [8] above 10 µM.

In the case of `N[C@@H](C(=O)N[C@@H]1C(=O)N2C(C(=O)O)=C(Cl)CS[C@H]12)c1ccccc1` [CEFACLOR ANHYDROUS], the concentration at half-maximal activity (AC50) in experiment [2], in experiment [3], in experiment [4], in experiment [5], in experiment [6] and in experiment [7] was above 30 µM in each case. This molecule showed an AC50 in experiment [8] above 30 µM.

As for `CC(C)Cc1ccc(CC(=O)O)cc1` [IBUFENAC], the AC50 in experiment [2], in experiment [3], in experiment [4], in experiment [5], in experiment [6] and in experiment [7] was above 30 µM each time. In experiment [8], this molecule returned an AC50 above 30 µM.

For the molecule `Cc1ccc(C(=O)c2cc(O)c(O)c([N+](=O)[O-])c2)cc1` [TOLCAPONE], the AC50 in experiment [2], in experiment [3], in experiment [4], in experiment [5], in experiment [6] and in experiment [7] was above 10 µM in each case. The molecule further came in with an AC50 in experiment [8] above 10 µM.

Take `CCOC(=O)[C@H](CCc1ccccc1)N[C@@H](C)C(=O)N1CCC[C@H]1C(=O)O`: the AC50 in experiment [2], in experiment [3], in experiment [4], in experiment [5], in experiment [6] and in experiment [7] was above 10 µM throughout. In experiment [8], the AC50 was above 10 µM.

For the molecule `NC(=O)c1ncn([C@@H]2O[C@H](CO)[C@@H](O)[C@H]2O)c1O` [MIZORIBINE], the AC50 in experiment [2], in experiment [3], in experiment [4], in experiment [5], in experiment [6] and in experiment [7] was above 30 µM each time. This molecule also registered an AC50 in experiment [8] above 30 µM.

As for `C[C@@H]1O[C@@H]1P(=O)(O)O` [FOSFOMYCIN], the AC50 in experiment [2] is above 10 µM; in experiment [3], above 10 µM; in experiment [4], above 10 µM; in experiment [5] it was above 10 µM; in experiment [6], above 10 µM; in experiment [7], above 30 µM. In experiment [8], this molecule had an AC50 above 10 µM.

For `NC[C@H]1CC[C@H](C(=O)O)CC1` [TRANEXAMIC ACID], the AC50 is above 10 µM in experiment [2]; above 10 µM in experiment [3]; above 30 µM in experiment [4]; above 10 µM in experiment [5]; above 10 µM in experiment [6]; above 30 µM in experiment [7]. In experiment [8], this molecule had an AC50 above 10 µM.

Consider `CC(C)NCC(O)COc1ccc(COCCOC(C)C)cc1` (configuration not stated) [BISOPROLOL], for which the AC50 in experiment [2], in experiment [3], in experiment [4], in experiment [5], in experiment [6] and in experiment [7] was above 10 µM throughout. In addition, in experiment [8], the AC50 is above 10 µM.

Take `C[C@H]1C[C@@H]2[C@H]([C@@H](O)C[C@@]3(C)[C@H]2CC[C@]3(O)C(=O)CO)[C@@]2(C)C=CC(=O)C=C12` [METHYLPREDNISOLONE]: the AC50 in experiment [2] is above 10 µM; in experiment [3] it was above 30 µM; in experiment [4], above 30 µM; in experiment [5], above 10 µM; in experiment [6], above 10 µM; in experiment [7] it was above 30 µM. This molecule also yielded an AC50 in experiment [8] above 30 µM.

For the molecule `CC(=O)c1ccc2c(c1)N(CCCN1CCN(CCO)CC1)c1ccccc1S2` [ACETOPHENAZINE], the AC50 was 1.2 µM in experiment [2]; 0.72 µM in experiment [3]; above 30 µM in experiment [4]; above 30 µM in experiment [5]; 4.49 µM in experiment [6]; above 30 µM in experiment [7]. This molecule registered an AC50 in experiment [8] above 30 µM.

As for `O=C(O)c1cc(-c2ccc(F)cc2F)ccc1O` [DIFLUNISAL], the AC50 in experiment [2] is above 10 µM; in experiment [3], above 10 µM; in experiment [4] it was above 30 µM; in experiment [5], above 10 µM; in experiment [6], above 10 µM; in experiment [7], above 30 µM. In addition, the AC50 in experiment [8] is above 10 µM.

For `CC(C)(C(=O)c1cccnc1)c1cccnc1` [METYRAPONE], the AC50 is above 10 µM in experiment [2]; above 10 µM in experiment [3]; above 10 µM in experiment [4]; above 10 µM in experiment [5]; above 10 µM in experiment [6]; above 30 µM in experiment [7]. The same molecule had an AC50 in experiment [8] above 10 µM.

For the molecule `CCC[C@@H]1C[C@@H](C(=O)N[C@@H]([C@H]2O[C@H](SC)[C@H](O)[C@@H](O)[C@H]2O)[C@H](C)Cl)N(C)C1` [CLINDAMYCIN], the AC50 in experiment [2] is above 10 µM; in experiment [3], above 10 µM; in experiment [4], above 10 µM; in experiment [5], above 10 µM; in experiment [6] it was above 10 µM; in experiment [7] it was above 30 µM. This molecule registered an AC50 in experiment [8] above 10 µM.

On to `NC[C@H]1O[C@H](O[C@H]2[C@H](O)[C@@H](O[C@H]3O[C@H](CO)[C@@H](O)[C@H](N)[C@H]3O)[C@H](N)C[C@@H]2N)[C@H](O)[C@@H](O)[C@@H]1O` [KANAMYCIN], for which the AC50 is above 10 µM in experiment [2]; above 30 µM in experiment [3]; above 30 µM in experiment [4]; above 10 µM in experiment [5]; above 10 µM in experiment [6]; above 30 µM in experiment [7]. For the same molecule, in experiment [8], the AC50 was above 30 µM.

`CC[C@H](C)C(=O)O[C@H]1C[C@H](O)C=C2C=C[C@H](C)[C@H](CC[C@@H](O)C[C@@H](O)CC(=O)O)[C@H]21` [PRAVASTATIN]: the AC50 in experiment [2], in experiment [3], in experiment [4], in experiment [5], in experiment [6] and in experiment [7] was above 30 µM in each case. This molecule gave an AC50 in experiment [8] above 30 µM.
